According to US20210292347A1, “DIHETEROCYCLIC TRIAZINONE NUCLEOSIDE ANALOGS AND THEIR USE FOR MEDICATION” (priority 2020, published 2021):
Converted amounts (≈) assume the structure as drawn. “Also recorded” adds a separate entry of the source. Where two headings read alike, the source gives them in different places.

Columns and labels:
[1] = test system: human breast cancer cell line MCF7; test: cells; format: cell-based
Method: (§1) Cell lines: Human pancreatic cancer cell line Panc-1, human colorectal cancer cell line HT29, human lung cancer cell line NCI-H460 and human breast cancer cell line MCF7; the medium: s DMEM (Gibco BRL), containing 10% fetal calf serum (Gibco BRL) and 2 mM L-glutamine (Gibco BRL).
(§2) Test samples: example compounds 7, 15, 82, 89, 116 and 135. The samples were dissolved in dimethyl sulfoxide (DMSO, Sigma, United States) and medium was added to the final concentration of 0.5%. Cyclophosphamide ware as positive control (Aldrich, United States, purity>96%).
(§3) General Method: cells were digested with trypsin and dispersed into single cells in the medium containing penicillin (25 U/ml) and streptomycin (25 μg/mL). The cells were seeded in 96-well culture plates (Corning Incorporated), at 37° C., with 5% CO2 present for 24 hours. The culture medium was removed, […] test compounds were added, cultured for 48 hours. Culture medium was removed and […] (MTT, USA Sigma products) was added. The result was assayed by SK601-based microplate reader (Japan Seikagaku company's products), 570 nm/630 nm optical density (OD). Cell viability determined by the formula: (Experimental group OD/control OD)×100%; CTX and the positive control subjects treated in the same material simultaneously.

[2] = test system: Human pancreatic cancer cell line Panc-1; test: cells; format: cell-based; settings: for IC50: Homo sapiens, read-out: IC50 and 95% confidence limit, anti-proliferative effect on Panc-1; for anti-proliferative effect on Panc-1 (in words): pancreatic cancer
Method: as §1, §2, §3

[3] = test system: human colorectal cancer cell line HT29; test: cells; format: cell-based; settings: for IC50: Homo sapiens; for anti-proliferative effect on HT29 (in words): colorectal cancer
Method: as §1, §2, §3

[4] = test system: human lung cancer cell line NCI-H460; test: cells; format: cell-based; settings: for IC50: Homo sapiens; for inhibitory effect on NCI-H460 cells (in words): lung cancer
Method: as §1, §2, §3

mice sarcoma S180 = test: Growth inhibition of S180 sarcoma in mice; format: in vivo, Kunming healthy mice; settings: for in-vivo anti-tumor efficacy, statistical significance (in words): S180 sarcoma in mice, doses and routes of Table 3
[5] = MCF7, MTT, 48 hours, unit inferred, read-out: IC50 with 95% confidence limits, MCF7 cells
[6] = MCF7, MTT, cultured for 48 hours, value (95% confidence limit), Table 2, read-out: IC50 Breast cancer MCF7
[7] = HT-29, MTT, 48 hours, read-out: IC50 and 95% confidence limit, anti-proliferative effect on HT29
[8] = HT-29, MTT, cultured for 48 hours, value (95% confidence limit), Table 2, read-out: IC50 Colorectal cancer HT-29
[9] = NCI-H460, MTT, 48 hours, unit inferred, read-out: IC50 and 95% confidence limits, NCI-H460 cells
[10] = NCI-H460, MTT, cultured for 48 hours, value (95% confidence limit), Table 2, read-out: IC50 Lung cancer NCI-H460
[11] = Mus musculus, S-180, mice, iv, read-out: Inhibition rate (%) S180 sarcoma

Row | SMILES | IC50 [1, 5] [µM] | IC50 [1, 6] [µM] | IC50 ([2]; PANC-1, MTT, 48 hours) [µg/mL] | IC50 [3, 7] [µg/mL] | IC50 [3, 8] [µM] | anti-proliferative effect on HT29 (in words) [3] | IC50 [4, 9] [µM] | IC50 [4, 10] [µM] | inhibitory effect on NCI-H460 cells (in words) [4] | inhibition in vivo at 50 mg/kg (mice sarcoma S180; [11]) [%] | in-vivo anti-tumor efficacy, statistical significance (in words) (mice sarcoma S180) | anti-proliferative effect on Panc-1 (in words) [2] | other results
1 | CCOC(=O)c1nn(CO)c2c(=O)n(C3OC3CO)nnc12 (centres unmarked) [Example 7, ethyl 7-(hydroxymethyl)-2-(3-(hydroxymethyl)oxiran-2-yl)-1-oxo-2,7-dihydro-1H-pyrazolo[4,3-d][1,2,3]triazine-5-carboxylate] | 6.18 | 6.18 | 51.3 (≈ 165 µM) | 18.8 | 18.8 | relatively weak | 5.18 | 5.18 | more sensitive to NCI-H460 cells |  |  |  | 
2 | Nc1nn(O)c2c(=O)n(C3OC(CO)C(O)C3O)nnc12 (centres unmarked) [Example 15, 7-amino-3-(3,4-dihydroxy-5-(hydroxymethyl)tetrahydrofuran-2-yl)-5-hydroxy-3H-pyrazolo[4,3-d][1,2,3]triazin-4(5H)-one] | 2.73 | 2.73 | 2.68 (≈ 8.93 µM) | 3.92 | 3.92 | close values to CTX; also recorded: higher inhibition activity | 22 | 22 | more sensitive to NCI-H460 cells | < 40 | statistically significant | higher inhibition activity | 
3 | CCCc1nn(C(C(=O)O)P(=O)(OCC)OCC)c2c(=O)n(C3CCC(CO)O3)nnc12 (centres unmarked) [Example 82, 2-(diethoxyphosphoryl)-2-(3-(5-(hydroxymethyl)tetrahydrofuran-2-yl)-4-oxo-7-propyl-3H-pyrazolo[4,3-d][1,2,3]triazin-5(4H)-yl)acetic acid] | 34.3 | 34.3 | 53 (≈ 112 µM) | 10.2 | 13.1 | relatively weak | 60.5 | 60.5 |  |  |  |  | inhibition in vivo at 15 mg/kg (mice sarcoma S180; Mus musculus, S-180, mice, iv, 15 mg/kg, read-out: Inhibition rate (%) S180 sarcoma): < 20%
4 | Nc1nn(O)c2c(=O)n(C3CSC(CO)O3)nnc12 (centres unmarked) [Example 89, 7-amino-5-hydroxy-3-(2-(hydroxymethyl)-1,3-oxathiolan-5-yl)-3H-pyrazolo[4,3-d][1,2,3]triazin-4(5H)-one] | 67.5 | 67.5 | 10 (≈ 35 µM) | 13.1 | 10.2 | relatively weak | 8.52 | 8.52 |  |  | statistically significant |  | inhibition in vivo at 100 mg/kg (mice sarcoma S180; Mus musculus, S-180, mice, ip, 100 mg/kg, read-out: Inhibition rate (%) S180 sarcoma): < 40%
5 | CCOC(=O)c1nn(O)c2c(=O)n(C3OC(COC(C(=O)O)P(NC(C)C)OCC#N)C(O)C3O)nnc12 (centres unmarked) [Example 116, 2-((cyanomethoxy)(isopropylamino)phosphino)-2-((5-(7-(ethoxycarbonyl)-5-hydroxy-4-oxo-4,5-dihydro-3H-pyrazolo[4,3-d][1,2,3]triazin-3-yl)-3,4-dihydroxytetrahydrofuran-2-yl)methoxy)acetic acid] |  |  |  |  |  | the strongest; also recorded: higher inhibition activity |  |  | more sensitive to NCI-H460 cells | < 40 | statistically significant | a strong anti-proliferative effect, better than CTX; also recorded: higher inhibition activity | IC50 ([1]; MCF7, 48 h, read-out: IC50 Breast cancer MCF7): 12.9 µM; IC50 ([1]; MCF7, 48 h, read-out: IC50 with 95% confidence limits, MCF7 cells): 12.9 µM; IC50 ([2]; PANC-1, 48 h): 2.19 µg/mL (≈ 3.91 µM); IC50 ([3]; HT-29, 48 h, read-out: IC50 Colorectal cancer HT-29): 2.68 µM; IC50 ([3]; HT-29, 48 h, read-out: IC50 and 95% confidence limit, anti-proliferative effect on HT29): 2.68 µg/mL; IC50 ([4]; NCI-H460, 48 h, read-out: IC50 Lung cancer NCI-H460): 4.62 µM; IC50 ([4]; NCI-H460, 48 h, read-out: IC50 and 95% confidence limits, NCI-H460 cells): 4.62 µM
6 | CCCc1nn(C)c2c(=O)n(C3OC(COP(=O)(O)OP(=O)(O)OP(=O)(O)O)C(O)C3O)nnc12 (centres unmarked) [Example 135, (3,4-dihydroxy-5-(5-methyl-4-oxo-7-propyl-4,5-dihydro-3H-pyrazolo[4,3-d][1,2,3]triazin-3-yl)tetrahydrofuran-2-yl)methyl tetrahydrogen triphosphate] | 5.7 | 5.7 | 53.5 | 18 | 18 | relatively weak | 14 | 14 |  |  | statistically significant |  | inhibition in vivo at 25 mg/kg (mice sarcoma S180; Mus musculus, S-180, mice, iv, 25 mg/kg, read-out: Inhibition rate (%) S180 sarcoma): < 40%
